Source: PubChem BioAssay (NCI)
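Test compounds were applied to cells in 96-well plates for 48 hours at 5 doses. TGI: concentration producing complete growth inhibition.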

Assays:
Experiment in all cases: NCI anticancer screen, dose series, 48 h
786-0 renal = test system: 786-0 renal
A549 NSCLC = test system: A549 NSCLC
ACHN renal = test system: ACHN renal
COLO 205 colon = test system: COLO 205 colon
DLD-1 colon = test system: DLD-1 colon
HCT-116 colon = test system: HCT-116 colon
HL-60(TB) leukemia = test system: HL-60(TB) leukemia
HOP-62 NSCLC = test system: HOP-62 NSCLC
HOP-92 NSCLC = test system: HOP-92 NSCLC
HT29 colon = test system: HT29 colon
IGROV1 ovarian = test system: IGROV1 ovarian
K-562 leukemia = test system: K-562 leukemia
KM12 colon = test system: KM12 colon
KM20L2 colon = test system: KM20L2 colon
LOX IMVI melanoma = test system: LOX IMVI melanoma
LXFL 529 NSCLC = test system: LXFL 529 NSCLC
M14 melanoma = test system: M14 melanoma
M19-MEL melanoma = test system: M19-MEL melanoma
MOLT-4 leukemia = test system: MOLT-4 leukemia
NCI-H226 lung = test system: NCI-H226 lung
NCI-H23 lung = test system: NCI-H23 lung
NCI-H460 lung = test system: NCI-H460 lung
NCI-H522 lung = test system: NCI-H522 lung
OVCAR-3 ovarian = test system: OVCAR-3 ovarian
OVCAR-4 ovarian = test system: OVCAR-4 ovarian
OVCAR-5 ovarian = test system: OVCAR-5 ovarian
OVCAR-8 ovarian = test system: OVCAR-8 ovarian
RPMI-8226 leukemia = test system: RPMI-8226 leukemia
SF-268 CNS = test system: SF-268 CNS
SF-295 CNS = test system: SF-295 CNS
SF-539 CNS = test system: SF-539 CNS
SK-MEL-28 melanoma = test system: SK-MEL-28 melanoma
SK-OV-3 ovarian = test system: SK-OV-3 ovarian
SNB-19 CNS = test system: SNB-19 CNS
SNB-75 CNS = test system: SNB-75 CNS
SNB-78 CNS = test system: SNB-78 CNS
SR leukemia = test system: SR leukemia
SW-620 colon = test system: SW-620 colon
TK-10 renal = test system: TK-10 renal
U251 CNS = test system: U251 CNS
UACC-257 melanoma = test system: UACC-257 melanoma
UACC-62 melanoma = test system: UACC-62 melanoma
UO-31 renal = test system: UO-31 renal
CCRF-CEM leukemia = test system: CCRF-CEM leukemia
DMS 273 small cell lung = test system: DMS 273 small cell lung
HCC-2998 colon = test system: HCC-2998 colon
RXF 393 renal = test system: RXF 393 renal

Measured: TGI

S=c1[nH]nc(-c2ccccc2)n1/N=C\c1ccc(-c2ccc(Cl)cc2)o1
not listed: CCRF-CEM leukemia | DMS 273 small cell lung | HCC-2998 colon | RXF 393 renal
> 100 µM: all other assays above

Cc1cnc(-c2ccccc2)o1
not listed: A549 NSCLC | ACHN renal | COLO 205 colon | HOP-92 NSCLC | HT29 colon | IGROV1 ovarian | KM12 colon | M19-MEL melanoma | OVCAR-3 ovarian | OVCAR-5 ovarian | OVCAR-8 ovarian | SF-268 CNS | SF-295 CNS | SK-OV-3 ovarian | SR leukemia | SW-620 colon | TK-10 renal | UACC-257 melanoma | UACC-62 melanoma | UO-31 renal
> 100 µM: all other assays above
